Results taken from the NIST ThermoML archive (doi:10.1021/je900216m).
Numbers after ± are expanded uncertainties.

Test: osmotic coefficient (dimensionless); mn = molality of the nth substance listed, in mol/kg
Settings: Liquid, isopiestic method

CCCC[N+](CCCC)(CCCC)CCCC.[Br-] [tetrabutylammonium bromide] + O
osmotic coefficient (283.15 K, m1 = 0.1035): 0.9257 ± 0.003
osmotic coefficient (283.15 K, m1 = 0.138): 0.9204 ± 0.0032
osmotic coefficient (283.15 K, m1 = 0.2197): 0.9146 ± 0.0034
osmotic coefficient (283.15 K, m1 = 0.2995): 0.9111 ± 0.0037
osmotic coefficient (283.15 K, m1 = 0.3343): 0.9104 ± 0.0037
osmotic coefficient (283.15 K, m1 = 0.4739): 0.9101 ± 0.004
osmotic coefficient (283.15 K, m1 = 0.5629): 0.9111 ± 0.0042
osmotic coefficient (283.15 K, m1 = 0.6903): 0.9136 ± 0.0042
osmotic coefficient (283.15 K, m1 = 0.7953): 0.916 ± 0.0042
osmotic coefficient (283.15 K, m1 = 0.8682): 0.918 ± 0.0042
osmotic coefficient (283.15 K, m1 = 0.9751): 0.9217 ± 0.0041
osmotic coefficient (288.15 K, m1 = 0.1045): 0.9107 ± 0.0035
osmotic coefficient (288.15 K, m1 = 0.1582): 0.8964 ± 0.0041
osmotic coefficient (288.15 K, m1 = 0.2837): 0.8776 ± 0.0049
osmotic coefficient (288.15 K, m1 = 0.3864): 0.8681 ± 0.0053
osmotic coefficient (288.15 K, m1 = 0.4954): 0.8596 ± 0.0058
osmotic coefficient (288.15 K, m1 = 0.628): 0.8539 ± 0.0062
osmotic coefficient (288.15 K, m1 = 0.7262): 0.8512 ± 0.0063
osmotic coefficient (288.15 K, m1 = 0.8429): 0.8501 ± 0.0064
osmotic coefficient (288.15 K, m1 = 0.9276): 0.8517 ± 0.0064
osmotic coefficient (288.15 K, m1 = 1.079): 0.8566 ± 0.0062

CCCC[N+](CC)(CC)CC.[Br-] [butyltriethyl ammonium bromide] + O
osmotic coefficient (283.15 K, m1 = 0.1033): 0.9271 ± 0.0029
osmotic coefficient (283.15 K, m1 = 0.1376): 0.9231 ± 0.0031
osmotic coefficient (283.15 K, m1 = 0.2187): 0.9188 ± 0.0033
osmotic coefficient (283.15 K, m1 = 0.2974): 0.9175 ± 0.0034
osmotic coefficient (283.15 K, m1 = 0.3319): 0.9169 ± 0.0035
osmotic coefficient (283.15 K, m1 = 0.4688): 0.92 ± 0.0034
osmotic coefficient (283.15 K, m1 = 0.555): 0.9241 ± 0.0034
osmotic coefficient (283.15 K, m1 = 0.679): 0.9288 ± 0.0033
osmotic coefficient (283.15 K, m1 = 0.78): 0.934 ± 0.0032
osmotic coefficient (283.15 K, m1 = 0.8485): 0.9393 ± 0.0031
osmotic coefficient (283.15 K, m1 = 0.9497): 0.9464 ± 0.0029
osmotic coefficient (288.15 K, m1 = 0.1039): 0.9158 ± 0.0033
osmotic coefficient (288.15 K, m1 = 0.1569): 0.904 ± 0.0038
osmotic coefficient (288.15 K, m1 = 0.2793): 0.8916 ± 0.0043
osmotic coefficient (288.15 K, m1 = 0.3789): 0.8853 ± 0.0046
osmotic coefficient (288.15 K, m1 = 0.4818): 0.884 ± 0.0047
osmotic coefficient (288.15 K, m1 = 0.6069): 0.8837 ± 0.0048
osmotic coefficient (288.15 K, m1 = 0.6983): 0.8853 ± 0.0048
osmotic coefficient (288.15 K, m1 = 0.8052): 0.8899 ± 0.0046
osmotic coefficient (288.15 K, m1 = 0.8847): 0.8929 ± 0.0046
osmotic coefficient (288.15 K, m1 = 1.028): 0.8989 ± 0.0044

CC(C)C[N+](CC(C)C)(CC(C)C)CC(C)C.[Br-] [tetra-iso-butyl ammonium bromide] + O
osmotic coefficient (283.15 K, m1 = 0.1035): 0.9253 ± 0.0029
osmotic coefficient (283.15 K, m1 = 0.1376): 0.9231 ± 0.0031
osmotic coefficient (283.15 K, m1 = 0.2192): 0.9167 ± 0.0034
osmotic coefficient (283.15 K, m1 = 0.2986): 0.9138 ± 0.0035
osmotic coefficient (283.15 K, m1 = 0.3332): 0.9133 ± 0.0036
osmotic coefficient (283.15 K, m1 = 0.4724): 0.9129 ± 0.0037
osmotic coefficient (283.15 K, m1 = 0.5608): 0.9146 ± 0.0037
osmotic coefficient (283.15 K, m1 = 0.6871): 0.9179 ± 0.0037
osmotic coefficient (283.15 K, m1 = 0.7904): 0.9217 ± 0.0036
osmotic coefficient (283.15 K, m1 = 0.8617): 0.9249 ± 0.0035
osmotic coefficient (283.15 K, m1 = 0.9658): 0.9307 ± 0.0034
osmotic coefficient (288.15 K, m1 = 0.1041): 0.9142 ± 0.0034
osmotic coefficient (288.15 K, m1 = 0.1569): 0.9038 ± 0.0038
osmotic coefficient (288.15 K, m1 = 0.2795): 0.8908 ± 0.0043
osmotic coefficient (288.15 K, m1 = 0.3804): 0.8818 ± 0.0047
osmotic coefficient (288.15 K, m1 = 0.4856): 0.877 ± 0.005
osmotic coefficient (288.15 K, m1 = 0.6127): 0.8752 ± 0.0051
osmotic coefficient (288.15 K, m1 = 0.7082): 0.8728 ± 0.0052
osmotic coefficient (288.15 K, m1 = 0.8192): 0.8747 ± 0.0052
osmotic coefficient (288.15 K, m1 = 0.9012): 0.8766 ± 0.0052
osmotic coefficient (288.15 K, m1 = 1.05): 0.8804 ± 0.0051

CCC(C)[N+](C(C)CC)(C(C)CC)C(C)CC.[Br-] (stereo not given) [tetra-sec-butyl ammonium bromide] + O
osmotic coefficient (283.15 K, m1 = 0.1033): 0.927 ± 0.0029
osmotic coefficient (283.15 K, m1 = 0.1377): 0.9222 ± 0.0031
osmotic coefficient (283.15 K, m1 = 0.2195): 0.9154 ± 0.0035
osmotic coefficient (283.15 K, m1 = 0.2991): 0.9123 ± 0.0036
osmotic coefficient (283.15 K, m1 = 0.3339): 0.9114 ± 0.0037
osmotic coefficient (283.15 K, m1 = 0.4732): 0.9114 ± 0.0039
osmotic coefficient (283.15 K, m1 = 0.5619): 0.9128 ± 0.0039
osmotic coefficient (283.15 K, m1 = 0.6887): 0.9157 ± 0.0039
osmotic coefficient (283.15 K, m1 = 0.7927): 0.919 ± 0.0039
osmotic coefficient (283.15 K, m1 = 0.8651): 0.9213 ± 0.0038
osmotic coefficient (283.15 K, m1 = 0.9705): 0.9261 ± 0.0037
osmotic coefficient (288.15 K, m1 = 0.1042): 0.913 ± 0.0034
osmotic coefficient (288.15 K, m1 = 0.1572): 0.9021 ± 0.0039
osmotic coefficient (288.15 K, m1 = 0.2811): 0.8859 ± 0.0046
osmotic coefficient (288.15 K, m1 = 0.3824): 0.8772 ± 0.0049
osmotic coefficient (288.15 K, m1 = 0.4912): 0.867 ± 0.0054
osmotic coefficient (288.15 K, m1 = 0.6212): 0.8632 ± 0.0056
osmotic coefficient (288.15 K, m1 = 0.7168): 0.8624 ± 0.0057
osmotic coefficient (288.15 K, m1 = 0.8295): 0.8638 ± 0.0057
osmotic coefficient (288.15 K, m1 = 0.9119): 0.8663 ± 0.0056
osmotic coefficient (288.15 K, m1 = 1.06): 0.8713 ± 0.0055

CCCC[N+](CC)(CC)CCCC.[Br-] [dibutyldiethylammonium bromdie] + O
osmotic coefficient (283.15 K, m1 = 0.1034): 0.9261 ± 0.0029
osmotic coefficient (283.15 K, m1 = 0.1376): 0.9232 ± 0.003
osmotic coefficient (283.15 K, m1 = 0.2189): 0.9178 ± 0.0033
osmotic coefficient (283.15 K, m1 = 0.2978): 0.9163 ± 0.0033
osmotic coefficient (283.15 K, m1 = 0.3324): 0.9156 ± 0.0034
osmotic coefficient (283.15 K, m1 = 0.4702): 0.9172 ± 0.0033
osmotic coefficient (283.15 K, m1 = 0.5576): 0.9198 ± 0.0033
osmotic coefficient (283.15 K, m1 = 0.6825): 0.924 ± 0.0032
osmotic coefficient (283.15 K, m1 = 0.7842): 0.9289 ± 0.003
osmotic coefficient (283.15 K, m1 = 0.8544): 0.9328 ± 0.0029
osmotic coefficient (283.15 K, m1 = 0.9569): 0.9393 ± 0.0026
osmotic coefficient (288.15 K, m1 = 0.1041): 0.9139 ± 0.0034
osmotic coefficient (288.15 K, m1 = 0.1562): 0.908 ± 0.0036
osmotic coefficient (288.15 K, m1 = 0.2772): 0.8982 ± 0.004
osmotic coefficient (288.15 K, m1 = 0.3749): 0.8947 ± 0.0041
osmotic coefficient (288.15 K, m1 = 0.4763): 0.8941 ± 0.0042
osmotic coefficient (288.15 K, m1 = 0.6002): 0.8934 ± 0.0043
osmotic coefficient (288.15 K, m1 = 0.6897): 0.8963 ± 0.0042
osmotic coefficient (288.15 K, m1 = 0.7971): 0.8989 ± 0.0041
osmotic coefficient (288.15 K, m1 = 0.8741): 0.9038 ± 0.0039
osmotic coefficient (288.15 K, m1 = 1.012): 0.9132 ± 0.0036
